Numbers after ± are expanded uncertainties.
Columns and labels:
[1] = refractive index (Na D-line) (dimensionless); xn = mol fraction of the nth substance listed; details: 101 kPa, Liquid
[2] = xn = mol fraction of the nth substance listed; details: for mass density / speed of sound / viscosity: 101 kPa, Liquid

CC(=O)CC(C)(C)O [4-hydroxy-4-methylpentan-2-one] + CCc1ccccc1
Details | mass density, [2] [kg/m3] | refractive index, [1] | speed of sound, [2] [m/s] | surface tension liquid-gas, [2] [mN/m] | viscosity, [2] [mPa·s]
303.15 K, x1 = 0.1814 | 880.9 ± 4 | 1.4864 ± 0.0026 | 1322 ± 6 | 29.92 ± 0.85 | 1.02 ± 0.075
303.15 K, x1 = 0.2621 | 886.6 ± 4 | 1.4813 ± 0.0026 | 1316 ± 6 | 29.88 ± 0.85 | 1.191 ± 0.086
303.15 K, x1 = 0.3445 | 892.5 ± 4 | 1.4753 ± 0.0026 | 1311 ± 6 | 29.84 ± 0.85 | 1.35 ± 0.097
303.15 K, x1 = 0.4219 | 898 ± 4.1 | 1.4701 ± 0.0026 | 1305 ± 6 | 29.8 ± 0.85 | 1.511 ± 0.11
303.15 K, x1 = 0.5447 | 906.5 ± 4.1 | 1.4599 ± 0.0026 | 1296 ± 6 | 29.76 ± 0.85 | 1.752 ± 0.12
303.15 K, x1 = 0.6624 | 914.7 ± 4.1 | 1.4505 ± 0.0025 | 1286 ± 6 | 29.71 ± 0.85 | 2.001 ± 0.14
303.15 K, x1 = 0.7667 | 922 ± 4.2 | 1.4425 ± 0.0025 | 1277 ± 6 | 29.62 ± 0.85 | 2.266 ± 0.16
303.15 K, x1 = 0.8388 | 926.5 ± 4.2 | 1.4373 ± 0.0025 | 1271 ± 6 | 29.58 ± 0.85 | 2.433 ± 0.17
303.15 K, x1 = 0.9219 | 931.5 ± 4.3 | 1.43 ± 0.0025 | 1264 ± 6 | 29.5 ± 0.85 | 2.66 ± 0.18
303.15 K, x1 = 1 | 936 ± 4.3 | 1.4239 ± 0.0025 | 1256 ± 6 | 29.44 ± 0.85 | 2.89 ± 0.19
313.15 K, x1 = 0.1814 | 856 ± 4 | 1.479 ± 0.0026 | 1271 ± 6 | 29.04 ± 0.83 | 0.9211 ± 0.069
313.15 K, x1 = 0.2621 | 861.8 ± 4 | 1.4741 ± 0.0026 | 1265 ± 6 | 29.04 ± 0.84 | 1.066 ± 0.078
313.15 K, x1 = 0.3445 | 867.8 ± 4.1 | 1.469 ± 0.0026 | 1257 ± 6 | 29.03 ± 0.84 | 1.234 ± 0.089
313.15 K, x1 = 0.4219 | 873.3 ± 4.1 | 1.4637 ± 0.0026 | 1250 ± 6 | 29.03 ± 0.84 | 1.4 ± 0.1
313.15 K, x1 = 0.5447 | 882.2 ± 4.2 | 1.454 ± 0.0025 | 1237 ± 6 | 29.03 ± 0.84 | 1.501 ± 0.11
313.15 K, x1 = 0.6624 | 890.8 ± 4.2 | 1.4458 ± 0.0025 | 1224 ± 5 | 29.03 ± 0.84 | 1.688 ± 0.12
313.15 K, x1 = 0.7667 | 897.5 ± 4.3 | 1.4384 ± 0.0025 | 1212 ± 5 | 29.03 ± 0.84 | 1.911 ± 0.13
313.15 K, x1 = 0.8388 | 902.2 ± 4.3 | 1.4335 ± 0.0025 | 1204 ± 5 | 29 ± 0.84 | 2.377 ± 0.16
313.15 K, x1 = 0.9219 | 907.6 ± 4.3 | 1.4264 ± 0.0025 | 1194 ± 5 | 28.95 ± 0.84 | 2.511 ± 0.17
313.15 K, x1 = 1 | 912.1 ± 4.4 | 1.4198 ± 0.0025 | 1183 ± 5 | 28.92 ± 0.84 | 2.791 ± 0.19
323.15 K, x1 = 0.1814 | 845.9 ± 4.2 | 1.4721 ± 0.0026 | 1192 ± 5 | 27.97 ± 0.81 | 0.7842 ± 0.06
323.15 K, x1 = 0.2621 | 851.6 ± 4.2 | 1.4675 ± 0.0026 | 1186 ± 5 | 27.9 ± 0.81 | 0.8814 ± 0.067
323.15 K, x1 = 0.3445 | 857.5 ± 4.3 | 1.4624 ± 0.0026 | 1180 ± 5 | 27.82 ± 0.81 | 0.9901 ± 0.074
323.15 K, x1 = 0.4219 | 863 ± 4.3 | 1.4518 ± 0.007 | 1175 ± 5 | 27.75 ± 0.81 | 1.011 ± 0.075
323.15 K, x1 = 0.5447 | 871.5 ± 4.4 | 1.451 ± 0.0025 | 1165 ± 5 | 27.64 ± 0.8 | 1.201 ± 0.087
323.15 K, x1 = 0.6624 | 879.9 ± 4.4 | 1.4433 ± 0.0025 | 1156 ± 5 | 27.53 ± 0.8 | 1.354 ± 0.097
323.15 K, x1 = 0.7667 | 886.6 ± 4.5 | 1.4363 ± 0.0025 | 1146 ± 5 | 27.44 ± 0.8 | 1.521 ± 0.11
323.15 K, x1 = 0.8388 | 891.3 ± 4.5 | 1.4285 ± 0.0025 | 1138 ± 5 | 27.35 ± 0.8 | 1.812 ± 0.13
323.15 K, x1 = 0.9219 | 896.9 ± 4.5 | 1.4225 ± 0.0025 | 1130 ± 5 | 27.24 ± 0.8 | 2.082 ± 0.14
323.15 K, x1 = 1 | 901 ± 4.6 | 1.4151 ± 0.0025 | 1121 ± 5 | 27.12 ± 0.8 | 2.67 ± 0.18

— the NIST ThermoML archive (doi:10.1021/je8002699)
